Reference: patent publication US20100120839A1, “PYRAZOLES USEFUL IN THE TREATMENT OF INFLAMMATION” (Biolipox AB, priority 2007, published 2010)

The compounds below were run against T1, purified human 15-lipoxygenase (Homo sapiens, UniProt P16050) (assay: 15-lipoxygenase inhibition assay (arachidonic acid oxidation, reverse phase HPLC readout)). Conditions: not given.
T1 sequence (P16050 1-662): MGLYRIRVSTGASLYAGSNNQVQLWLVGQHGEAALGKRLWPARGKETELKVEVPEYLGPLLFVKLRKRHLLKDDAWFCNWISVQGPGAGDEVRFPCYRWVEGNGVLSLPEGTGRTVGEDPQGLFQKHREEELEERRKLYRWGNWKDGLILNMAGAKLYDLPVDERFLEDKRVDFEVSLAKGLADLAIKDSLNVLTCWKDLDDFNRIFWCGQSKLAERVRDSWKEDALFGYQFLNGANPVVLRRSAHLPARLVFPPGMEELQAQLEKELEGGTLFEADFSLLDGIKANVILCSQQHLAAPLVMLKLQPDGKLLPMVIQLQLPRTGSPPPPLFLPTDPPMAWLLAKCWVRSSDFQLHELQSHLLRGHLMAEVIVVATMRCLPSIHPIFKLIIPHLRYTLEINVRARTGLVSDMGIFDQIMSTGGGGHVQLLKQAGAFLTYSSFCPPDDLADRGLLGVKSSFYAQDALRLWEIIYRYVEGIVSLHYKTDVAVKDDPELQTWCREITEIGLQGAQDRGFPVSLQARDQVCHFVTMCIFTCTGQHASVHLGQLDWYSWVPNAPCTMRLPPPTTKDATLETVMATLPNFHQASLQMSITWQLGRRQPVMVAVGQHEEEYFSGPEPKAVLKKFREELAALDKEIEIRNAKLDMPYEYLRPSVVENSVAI
Format: biochemical
Method: The assay employed takes advantage of the ability of lipoxygenases to oxidize polyunsaturated fatty acids, containing a 1,4-cis-pentadiene configuration, to their corresponding hydroperoxy or hydroxyl derivatives. In this particular assay, the lipoxygenase was a purified human 15-lipoxygenase and the fatty acid was arachidonic acid. The assay is performed at room temperature (20-22° C.) and the following are added to each well in a 96-well microtiter plate:
a) 35 μL phosphate buffered saline (PBS) (pH 7.4); b) inhibitor (i.e. compound) or vehicle (0.5 μl DMSO); c) 10 μL of a 10× concentrated solution of 15-lipoxygenase in PBS. […] The plate is then incubated for 10 minutes at room temperature; e) the enzymatic reaction is terminated by the addition of 100 μl methanol; and f) the amount of 15-hydroperoxy-eicosatetraenoic acid or 15-hydroxy-eicosatetraenoic acid is measured by reverse phase HPLC.
In the case of `c1ccc2oc(-c3cc[nH]n3)nc2c1` [Example 1, 2-(Pyrazol-3-yl)-benzoxazole], the IC50 is reported as 224 nM.

Same assay, conditions: arachidonic acid substrate, room temperature (20-22° C.), PBS pH 7.4; read-out: IC50
Compound `Clc1cc(-c2nc3ccccc3o2)n[nH]1` [Example 11, 2-(5-Chloropyrazol-3-yl)benzoxazole] has an IC50 of 33 nM.
Compound `Fc1cccc2nc(-c3cc(Cl)[nH]n3)oc12` [Example 15, 2-(5-Chloropyrazol-3-yl)-7-fluorobenzoxazole] has an IC50 of 41 nM.
With `Fc1cccc2oc(-c3cc(Cl)[nH]n3)nc12` [Example 17, 2-(5-Chloropyrazol-3-yl)-4-fluorobenzoxazole] the IC50 was 49 nM.
Work on `Fc1cccc2oc(-c3n[nH]c(Cl)c3Cl)nc12` [Example 18, 2-(4,5-Dichloropyrazol-3-yl)-4-fluorobenzoxazole] yielded an IC50 of 35 nM.
`Clc1[nH]nc(-c2nc3cccnc3o2)c1Cl` [Example 32, 2-(4,5-Dichloropyrazol-3-yl)oxazolo[5,4-b]pyridine] showed an IC50 of 127 nM.
In the case of `FC(F)(F)c1cnc2oc(-c3n[nH]c(Cl)c3Cl)nc2c1` [Example 33, 2-(4,5-Dichloropyrazol-3-yl)-6-(trifluoromethyl)-oxazolo[5,4-b]pyridine], the IC50 is reported as 85 nM.
